# Experimental data: patent publication US20220015365A1, “SYNERGISTIC HERBICIDE COMPOSITION OF BROAD-SPECTRUM FOR THE CONTROL OF WEEDS IN AGRICULTURAL CULTURES, USE OF SUCH COMPOSITION FOR PREPARATION OF PRODUCT, PRODUCT AND METHOD OF APPLICATION” (priority 2018, published 2022)
# Assays:
# [1] = tested on: Brachiaria decumbens; experiment: Pre-emergence weed control in soil prepared with weed seeds, synergy by Colby equation; format: in vivo; conditions: 35 days after application
# Experimental: (§1) Protocol: in soil prepared with weed seeds (without germination), the composition of the present invention was applied. This test was performed for two species of weeds: Brachiaria decumbens and Panicum maximum. Data were collected 35 days after application of the composition to the soil and calculated. […] Colby equation: to use Colby's approach to evaluate synergy or antagonism in combinations, the components of the combination should be tested individually in their concentration of components in the same study as the combination. The results observed for the combination are compared with the expected results of the Colby Equation (Colby, 1967). Note that this equation is derived from the definition of the probability of independence. […] […].2. Criteria of the analysis: • If the value observed is higher than expected (Obs>E): synergy; • If the value observed is lower than expected (Obs<E): antagonism.
# [2] = tested on: Panicum maximum; experiment: as above; format: in vivo; conditions: 35 days after application
# Experimental: as §1
structure (smiles),measurement,setting,value
"CC(C)c1nn(C(=O)NC(C)(C)C)c(=O)n1N [Amicarbazone, 4-Amino-N-(tert-butyl)-3-isopropyl-5-oxo-4,5-dihydro-1H-1,2,4-triazole-1-carboxamide]",Control % BRADC Observed,[1]; Amicarbazone 238.00 g ai/ha,52.50%
same,Control % BRADC Observed,[1]; Amicarbazone 442.00 g ai/ha,66.25%
same,Control % BRADC Observed,[1]; Amicarbazone 515.60 g ai/ha,62.50%
same,Control % BRADC Observed,[1]; Amicarbazone 571.15 g ai/ha,77.50%
same,Control % PANMA Observed,[2]; Amicarbazone 238.00 g ai/ha,83.25%
same,Control % PANMA Observed,[2]; Amicarbazone 317.30 g ai/ha,75.00%
same,Control % PANMA Observed,[2]; Amicarbazone 442.00 g ai/ha,0.00%
same,Control % PANMA Observed,[2]; Amicarbazone 515.60 g ai/ha,90.00%
same,Control % PANMA Observed,[2]; Amicarbazone 571.15 g ai/ha,91.25%
same,Control % PANMA Observed,[2]; Amicarbazone 589.30 g ai/ha,90.00%
same,Control % PANMA Observed,[2]; Amicarbazone 594.00 g ai/ha,86.25%
same,Control % PANMA Observed,[2]; Amicarbazone 687.50 g ai/ha,95.00%
same,Control % PANMA Observed,[2]; Amicarbazone 761.54 g ai/ha,98.25%
same,Control % PANMA Observed,[2]; Amicarbazone 792.00 g ai/ha,88.75%
"C#CCN1C(=O)COc2cc(F)c(N3C(=O)C4=C(CCCC4)C3=O)cc21 [Flumioxazin, N-(7-Fluor-3,4-dihydro-3-oxo-4-prop-2-inyl-2H-1,4-benzoxazin-6-yl)cyclohex-1-en-1,2-dicarboximide]",Control % BRADC Observed,[1]; Flumioxazin 47.60 g ai/ha,81.25%
same,Control % BRADC Observed,[1]; Flumioxazin 103.10 g ai/ha,83.75%
same,Control % BRADC Observed,[1]; Flumioxazin 176.80 g ai/ha,92.75%
same,Control % BRADC Observed,[1]; Flumioxazin 380.00 g ai/ha,90.00%
same,Control % PANMA Observed,[2]; Flumioxazin 24.75 g ai/ha,81.25%
same,Control % PANMA Observed,[2]; Flumioxazin 33.00 g ai/ha,88.75%
same,Control % PANMA Observed,[2]; Flumioxazin 47.60 g ai/ha,89.50%
same,Control % PANMA Observed,[2]; Flumioxazin 63.46 g ai/ha,97.00%
same,Control % PANMA Observed,[2]; Flumioxazin 103.10 g ai/ha,98.75%
same,Control % PANMA Observed,[2]; Flumioxazin 137.50 g ai/ha,97.50%
same,Control % PANMA Observed,[2]; Flumioxazin 176.80 g ai/ha,97.55%
same,Control % PANMA Observed,[2]; Flumioxazin 235.70 g ai/ha,99.00%
same,Control % PANMA Observed,[2]; Flumioxazin 380.00 g ai/ha,97.50%
same,Control % PANMA Observed,[2]; Flumioxazin 507.70 g ai/ha,98.75%
